{"source": "patent US10597649B2", "about": "“Tau protease compositions and methods of use” (Oligomerix, Inc., priority 2011, dated 2020)", "key": {"[1]": {"biological_target": "T1, tau 4R2N trimer protease (Homo sapiens, UniProt P10636)", "T1 construct": "Stabilization buffer enables production of full length monomer, dimer and trimer for tau protease; made in house; host or cells: E. coli BL21 (DE3) Gold", "T1 sequence (P10636 1-441 isoform P10636-8)": "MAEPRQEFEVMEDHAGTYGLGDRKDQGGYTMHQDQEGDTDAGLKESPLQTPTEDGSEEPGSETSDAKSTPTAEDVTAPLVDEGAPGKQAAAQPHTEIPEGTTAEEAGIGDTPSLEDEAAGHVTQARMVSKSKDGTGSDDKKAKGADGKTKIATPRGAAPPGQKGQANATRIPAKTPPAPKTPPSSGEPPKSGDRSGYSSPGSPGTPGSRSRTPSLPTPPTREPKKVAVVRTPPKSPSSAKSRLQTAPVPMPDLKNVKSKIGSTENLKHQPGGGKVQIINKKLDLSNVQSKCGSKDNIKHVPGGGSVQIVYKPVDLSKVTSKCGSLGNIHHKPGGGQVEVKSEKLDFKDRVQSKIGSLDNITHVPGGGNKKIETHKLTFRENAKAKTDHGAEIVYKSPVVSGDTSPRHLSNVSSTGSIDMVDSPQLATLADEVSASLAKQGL", "test": "Peptide assay (tau peptide 335-353, reverse-phase HPLC) used to screen serine protease inhibitors", "format": "biochemical", "parameters": "inhibition of cleavage of the peptide (FIG. 14D) / inhibition of cleavage of the peptide (FIG. 14F): dose or concentration left out as unconfirmed", "settings": "1 hr at room temperature before peptide substrate", "from_the_text": "N-terminal sequencing of fragments using mass spectrometry identified autoproteolytic cut sites. In particular, cutting at the Lys340-Ser341 (340KS341) cut site occurred readily. Therefore, a 19-amino acid peptide corresponding to amino acids 335G to 353L of tau protein was synthesized that contained the KS cut site (340KS341). The reaction was monitored by reverse-phase high-pressure liquid chromatography (HPLC). […] An asterisk marks a non-specific contaminant that was used as a marker. […] 10 μg of tau peptide 335-353 ([…]) (SEQ ID NO:19) was custom synthesized by Genscript (Piscataway, N.J., USA) and 1 mg was dissolved in 1 mL of buffer (25 mM Tris-HCl pH 7.4). […] of peptide was incubated with 11 μg of tau trimer protease in 30 μL buffer 20 hr at 37° C. and analyzed by HPLC [SystemGold® 32Karat™ LC-CE System, Beckman Coulter, Inc., (Indianapolis, Ind.)] using a linear gradient of acetonitrile in 0.1% TFA 0-60% acetonitrile on an analytical C18 column (12.5 cm×2.1 mm, 5 μm, (Supelco, Bellefonte, Pa., USA). 30 μg of peptide was incubated without tau protease as a negative control and analyzed with the same method;\nThe peptide assay for tau 4R2N trimer activity described in FIG. 5 was used to screen a series of serine protease inhibitors. 1 mM AEBSF was incubated with tau 4R2N trimer for 1 hr at room temperature before addition of the peptide substrate. […] The asterisk indicates an artifactual peak unrelated to the peptide;"}, "[2]": {"biological_target": "T2, Tau 4R2N oligomer ladder (Homo sapiens, UniProt P10636)", "T2 construct": "Stabilization buffer enables production of full length monomer, dimer and trimer for tau protease; made in house; host or cells: E. coli BL21 (DE3) Gold", "T2 sequence (P10636 1-441 isoform P10636-8)": "as above", "test": "FP-TAMRA serine hydrolase probe labeling of oligomerized tau 4R2N", "format": "biochemical", "settings": "pre-treated with 0, 0.1, 1.0 or 10.0 mM AEBSF for 1 hr; 5 micromolar FP-TAMRA, 4 hrs", "from_the_text": "Tau 4R2N oligomer ladder was labeled with fluorophosphonate (FP) linked to a fluorescent TAMRA tag (ThermoFisher Scientific), a probe that is specific for active site serines in serine proteases. FP probes specifically label the serines of enzymatically-active serine hydrolases. The serine protease-specific inhibitor, AEBSF, was used in a dose-response study to determine whether tau was being specifically labeled with FP. […] Samples were run without reductant or with reductant as indicated. For labeling, 10 μg of tau 4R2N was labeled with 5 micromolar FP-TAMRA in 10 μL buffer (25 mM Tris-HCl pH 7.4, 150 mM NaCl, 0.5 mM EDTA, 0.1% NP-40, 5% glycerol) for 4 hrs at room temperature in the dark. Samples were pre-treated with 0, 0.1, 1.0, or 10.0 mM AEBSF for 1 hr at room temperature to block the active-site serine before the addition of the FP-TAMRA probe. Samples were divided in half and run with sample buffer with or without reductant as indicated;\n4-(2-Aminoethyl)benzenesulfonyl fluoride hydrochloride (AEBSF) was prepared fresh in anhydrous DMSO. (Sigma Chemical Co.) A8456-≥97%, Molecular Weight: 239.69; 9 mg AEBSF/187.2 μL DMSO=200 mM. Serine hydrolase FP probes were equilibrated to room temperature in pouch with desiccant. Serine hydrolase FP probe was dissolved in 100 μL of DMSO to make a 0.1 mM stock solution. Samples were aliquotted in 5-μL/tubes and store in −80° C. freezer. […]"}, "[3]": {"biological_target": "T3, Tau 4R2n 241-340 (TP-99) (Homo sapiens, UniProt P10636)", "T3 construct": "initiating methionine (N); made in house; host or cells: E. coli BL21 (DE3) Gold", "T3 sequence (P10636 with tags, fused parts or gaps)": "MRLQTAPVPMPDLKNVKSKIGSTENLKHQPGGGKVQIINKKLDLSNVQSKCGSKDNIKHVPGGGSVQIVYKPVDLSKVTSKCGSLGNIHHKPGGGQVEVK", "test": "TP-99 peptide digest HPLC assay with added zinc chloride", "format": "biochemical", "settings": "100 μM zinc chloride, 44 hr at 37° C.", "protocol": "As in FIG. 7, cleavage of the peptide substrate for tau protease Tau 4R2N (amino acids 335-353) was used to monitor activity using reverse-phase HPLC. […] The large peak in the lower trace indicates intact peptide which is greatly diminished in the upper trace and replaced with two smaller peaks F1 and F2 that represent fragments generated by TP-99. […] The asterisk indicates an artifact peak that is derived from the incubation tube. Ten microgram of Tau peptide 335-353 (OP-001) was incubated without TP-99, with 25 μL, TP-99 oligomer ladder, or with additional 100 μM zinc chloride, 44 hr at 37° C. in 30 μL buffer (25 mM Tris-HCl pH 7.4). Samples were analyzed by reverse phase HPLC (SystemGold® 32Karat™ LC-CE System, Beckman Coulter, Inc., (Indianapolis, Ind.)) using a linear gradient of acetonitrile in 0.1% TFA 0-60% acetonitrile on an analytical C18 column (12.5 cm×2.1 mm, 5 μm, (Supelco);"}, "[4]": {"tested_on": "Aβ", "settings": "clinical endpoint in Phase III; cited from earlier work"}, "[5]": {"biological_target": "T4, tau 4R2N trimer (Homo sapiens, UniProt P10636)", "T4 construct": "Stabilization buffer enables production of full length monomer, dimer and trimer for tau protease; made in house; host or cells: E. coli BL21 (DE3) Gold", "T4 sequence (P10636 1-441 isoform P10636-8)": "as the sequence (P10636 1-441 isoform P10636-8) above", "test": "SDS titration for tau protease stabilization buffer", "format": "biochemical", "protocol": "(§1) Purified recombinant human tau 4R2N was prepared as described in the flow chart. Monomer, dimer and trimer species were purified preparative electrophoresis from a tau 4R2N preparation that had formed oligomers. The electrophoresis buffer contained 0.1% SDS which inhibited the proteolytic activity. Fractions containing the tau species were buffer exchanged into 25 mM Tris-HCl pH 7.4 using and Amicon ultrafiltration device (Merck Millipore, Billerica, Mass.), which led to restoration of tau autoproteolytic activity. Protein concentrations of the preparations were determined using the BCA kit (ThemoFisher Scientific). Samples were run on a pre-cast 4-20% polyacrylamide Tris-HCl gel (BioRad, Hercules, Calif.) without using reductant in order to visualize the disulfide mediated oligomers. The gel was stained with GelCodeBlue Safe (ThermoFisher Scientific, Rockford, Ill.). Lane 1: 5.2 μg of tau 4R2N oligomer standard; Lane 2: 2 microliter of monomer fraction before buffer exchange; Lane 3: 0.5 μg monomer after buffer exchange; Lane 4: […] of dimer fraction before buffer exchange; Lane 5: 0.5 μg dimer after buffer exchange; Lane 6: 20 μL trimer fraction before buffer exchange; Lane 7: 0.5 μg trimer after buffer exchange.\nThis example describes the development and characterization of a stabilization buffer for preserving the activity of tau protease. […]"}, "[6]": {"biological_target": "T4, tau 4R2N trimer", "test": "Tau 4R2N trimer incubated overnight with protease inhibitors, fragmentation read by SDS-PAGE", "format": "biochemical", "settings": "overnight at 37° C., inhibitors at low and high concentrations; chymostatin 10 and 100 μM", "experimental": "Tau 4R2N trimer was incubated overnight at 37° C. with and without serine-specific protease inhibitors (Sigma Aldrich, St. Louis, Mo.). The incubation volumes were 3.45 microliter at a final concentration of 0.145 mg/mL tau 4R2N trimer.\nTau 4R2N trimer was incubated overnight at 37° C. with and without serine-specific protease inhibitors at low and high concentrations.\nTau trimer protease was incubated with and without protease inhibitor cocktail overnight containing serine protease, amino-peptidase, cysteine protease and aspatic protease inhibitors.\nFor each sample, 0.45 μg of tau 4R2N trimer was incubated at 0.2 mg/mL overnight at 37° C. in the presence of various freshly prepared protease inhibitors. Non-incubated control was kept on ice overnight at 4° C. Next day, 2× sodium dodecyl sulfate sample buffer with reductant was added to each sample and loaded onto a 4-20% gradient Tris-HCl Criterion Gel (Bio-Rad).\nProtease inhibitors targeted include serine proteases, amino-peptidases, cysteine proteases, metallo-proteases, and aspartic proteases."}, "[7]": {"biological_target": "T5, Tau 4R2N (Homo sapiens, UniProt P10636)", "T5 construct": "Stabilization buffer enables production of full length monomer, dimer and trimer for tau protease; made in house; host or cells: E. coli BL21 (DE3) Gold", "T5 sequence (P10636 1-441 isoform P10636-8)": "as above", "test": "NEM treatment of tau 4R2N monomer, incubation at 37° C., non-reducing SDS-PAGE", "format": "biochemical", "settings": "1 mM NEM for 2 hr", "protocol": "FIG. 2 illustrates the formation of disulfide mediated tau oligomers preceded truncation and higher order aggregate formation. Tau 4R2N oligomers were purified by continuous-elution electrophoresis and monomer was further purified by pooling and buffer exchanging using spin columns with a molecular weight cut-off of 7000 Da into 25 mM Tris-HCl pH 7.4. A small amount of the monomer was treated with freshly-prepared NEM at a final concentration of 1 mM for 2 hr at ambient temperature. For incubations, monomer treated and untreated with NEM was allowed to incubate at 37° C. over the weekend (approximately 50 hrs), followed by separation on 4-20% sodium dodecyl sulfate (SDS)-polyacrylamide gel electrophoresis (PAGE) (SDS-PAGE) Tris-HCl gel (Bio-Rad Catalogue #345-0033 Hercules, Calif., USA) without reductant. Tau 4R2N—Disulfide-mediated oligomer formation preceded truncation, and truncation preceded higher-order aggregation. Aggregate formation was time dependent."}, "[8]": {"biological_target": "T5, Tau 4R2N", "test": "Autoproteolytic activity of purified tau monomer, dimer and trimer (SDS-PAGE)", "format": "biochemical", "settings": "for degradation in contamination control study (Example 3): 0.35 μg, overnight at 37° C., equal sample volumes from purification; for autoproteolytic activity (Example 1): after buffer exchange into 25 mM Tris-HCl pH 7.4, incubation at 37° C.", "protocol": "This example describes the identification of the autoproteolytic activity of tau oligomers.\nas §1\nTau 4R2N undergoes autoproteolytic cleavage (self-cleavage) when it forms disulfide-mediated oligomers upon incubation. Tau autoproteolyic activity co-purified with the dimer and trimer species. The amount of autoproteolytic activity was greatest with trimer which fragmented to the extent where no full size trimer remained after incubation. […] It was also shown that Tau autoproteolytic activity co-purified with dimer and trimer species. […] Full-length trimer digested completely into smaller fragments, and upon incubation, monomer formed an oligomeric ladder that produced a low level of autoproteolytic activity.\n(§2) Monomer, Dimer, and Trimer of Tau 441 were purified under non-reducing conditions using continuous-elution electrophoresis. Fractions of each oligomer sample were pooled and buffer exchanged into stabilization buffer using an Amicon spin concentrator with a molecular weight cut-off of 30,000 daltons. 0.35 μg of each sample was incubated overnight at 37° C. while non-incubated control was kept on ice at 4° C. Next day, 2×SDS sample buffer without reductant was added to each sample and loaded onto a 4-20% gradient Tris-HCl Criterion Gel (Bio-Rad, Hercules, Calif.).\nas §2, with “This example presents results from a contamination control study of tau protease. Monomer,” for “Monomer,”, “2× sodium dodecyl sulfate” for “2×SDS”\nLane 1—tau oligomer ladder standard; Lane 2—empty; Lane 3—purified monomer no incubation (fraction from purification plate); Lane 4—purified monomer without incubation; Lane 5—purified monomer with incubation; Lane 6—purified dimer without incubation; Lane 7—purified dimer with incubation; Lane 8—purified trimer without incubation; purified trimer with incubation overnight at 37° C. Lanes 3-9 were treated with sample buffer containing β-mercaptoethanol (BME)."}}}
{"molecule": "gabexate mesylate", "values": [{"measurement": "inhibition of cleavage of the peptide (FIG. 14F)", "setting": "[1]; gabexate mesylate", "result": "did not significantly inhibit"}]}
{"molecule": "Cl.NCCc1ccc(S(=O)(=O)F)cc1", "note": "[AEBSF, 4-(2-Aminoethyl)benzenesulfonyl fluoride hydrochloride]", "values": [{"measurement": "FP-TAMRA labeling of tau 4R2N", "setting": "[2]", "result": "inhibited in a dose-dependent manner"}, {"measurement": "inhibition of tau 4R2N trimer protease activity, peptide assay (FIG. 14A)", "setting": "[1]; 1 mM AEBSF", "result": "inhibited"}]}
{"molecule": "[Cl-].[Cl-].[Zn+2]", "note": "[zinc chloride]", "values": [{"measurement": "activity of TP-99 on tau peptide 335-353", "setting": "[3]", "result": "increased the activity"}]}
{"molecule": "CC(C)[C@H](O)C(=O)N[C@@H](C)C(=O)N[C@@H]1C(=O)N(C)CCc2ccccc21", "note": "[Semagacestat]", "values": [{"measurement": "Status", "setting": "[4]", "result": "Failed to meet"}]}
{"molecule": "C[C@@H](C(=O)O)c1ccc(-c2ccccc2)c(F)c1", "note": "[R-flurbiprofen]", "values": [{"measurement": "Status", "setting": "[4]", "result": "Failed to meet"}]}
{"molecule": "CCCCCCCCCCCCOS(=O)(=O)[O-].[Na+]", "note": "[SDS, sodium dodecyl sulfate]", "values": [{"measurement": "minimal inhibitory concentration for the enzymatic activity", "setting": "[5]; 0.3 μg tau 4R2N trimer, overnight at 37° C., 50 mM TrisHCl pH 7.4", "result": 0.002, "unit": "%"}, {"measurement": "proteolytic activity in electrophoresis buffer", "setting": "[5]; 0.1% SDS", "result": "inhibited"}]}
{"molecule": "NCCCS(=O)(=O)O", "note": "[Tramiprosate]", "values": [{"measurement": "Status", "setting": "[4]", "result": "Failed to meet"}]}
{"molecule": "CC(C)C[C@H](NC(=O)[C@@H](NC(=O)N[C@@H](Cc1ccccc1)C(=O)O)[C@@H]1CCN=C(N)N1)C(=O)N[C@H](C=O)Cc1ccccc1", "note": "[Chymostatin]", "values": [{"measurement": "inhibitory effect on tau 4R2N trimer, serine protease inhibitor panel (FIG. 12)", "setting": "[6]", "result": "greatest inhibitory effect"}, {"measurement": "inhibition of cleavage of the peptide (FIG. 14D)", "setting": "[1]; chymostatin", "result": "strongly inhibited"}]}
{"molecule": "CCN1C(=O)C=CC1=O", "note": "[NEM, N-ethylmaleimide]", "values": [{"measurement": "disulfide-mediated oligomer formation", "setting": "[7]; then about 50 hrs at 37° C.", "result": "irreversibly inhibited"}, {"measurement": "autoproteolytic activity", "setting": "[7]; then incubation at 37° C.", "result": "loss of autoproteolytic activity"}, {"measurement": "higher order aggregate formation", "setting": "[7]; then incubation at 37° C.", "result": "inhibition of higher order aggregate formation"}]}
{"molecule": "tau 4R2N dimer: purified disulfide-mediated dimer species of recombinant human tau 4R2N", "values": [{"measurement": "degradation in contamination control study (Example 3)", "setting": "[8]", "result": "minimal cleavage"}, {"measurement": "autoproteolytic activity (Example 1)", "setting": "[8]", "result": "showed autoproteolytic activity"}]}
{"molecule": "tau 4R2N monomer: purified monomer species of recombinant human tau 4R2N", "values": [{"measurement": "degradation in contamination control study (Example 3)", "setting": "[8]", "result": "minimal cleavage"}, {"measurement": "autoproteolytic activity (Example 1)", "setting": "[8]", "result": "minor activity"}]}
